According to US11324733B2, “Methods for improving memory and cognition and for treating memory and cognitive disorders” (Cavion, Inc., priority 2017, dated 2022):

Test system: AS mice (Ube3am−/p+ KO mice) with LTP deficits
Assay: LTP deficits in cognitively deficient (AS) mice; fEPSP recording in hippocampal slices after oral treatment
Format: in vivo
Method: For all behavioral and electrophysiology experiments female Ube3am−/p+ KO mice (i.e., AS mice) were crossed with wild-type males, to generate heterozygous AS mice and littermate controls in the F1 hybrid 12952-057BL/6 background. The AS mice have cognitive deficits, including long term potentiation (LTP) deficits.
Control mice (“wt”) were treated with vehicle while AS mice were treated with vehicle or MK-8998 (“CX”) at 30 mg/kg or at 60 mg/kg dose given orally twice per day in the morning and afternoon. Dosing was carried out for one week before testing, then behavioral tests were carried out on the animals over a 5-week period.
After the behavioural tests, animals remained under treatment until the animals were sacrificed one hour after the last drug administration. […] LTP was evoked using the 10 Theta burst protocol (10 trains of 4 stimuli at 100 Hz, 200 ms apart), performed at two-third of the maximum fEPSP. fEPSP sizes were recorded once per minute. Potentiation was measured as the normalized increase of the mean fEPSP slope for the duration of the baseline. […] Final LTP was determined over the last 10 min of the recording. […]
LTP was evoked using the 10 Theta burst protocol (10 trains of 4 stimuli at 100 Hz, 200 ms apart), performed at two-third of the maximum fEPSP. Final LTP was determined over the last 10 min of the recording. […]

Question: For `CC(C)c1ccc(CC(=O)N[C@H](C)c2ccc(OCC(F)(F)F)cn2)cc1` [MK-8998], which “P, post hoc Bonferroni multiple comparisons, AS Vehicle vs treated (LTP)” value (30 mg/kg) is on record?
Answer: 0.01

Question: What about the “P, post hoc Bonferroni multiple comparisons, AS Vehicle vs treated (LTP)” value (60 mg/kg) of the same molecule?
Answer: 0.02
